Assay results as given in PubChem BioAssay (NCI).
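GI50 marks 50% less growth. TGI denotes the concentration required for complete inhibition of growth.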

What was measured:
Assay in all cases: inhibition of tumour cell growth, NCI panel, 384-well format; in the data active means GI50 below about 0.43 µM; inactive means the rest
LOX IMVI melanoma = system: LOX IMVI melanoma
786-0 renal = system: 786-0 renal
HCT-116 colon = system: HCT-116 colon
SK-OV-3 ovarian = system: SK-OV-3 ovarian
RXF 393 renal = system: RXF 393 renal
UO-31 renal = system: UO-31 renal
T-47D breast = system: T-47D breast
SNB-19 CNS = system: SNB-19 CNS
UACC-257 melanoma = system: UACC-257 melanoma
EKVX NSCLC = system: EKVX NSCLC
HL-60(TB) leukemia = system: HL-60(TB) leukemia
OVCAR-4 ovarian = system: OVCAR-4 ovarian
MDA-MB-468 breast = system: MDA-MB-468 breast
DU-145 prostate = system: DU-145 prostate
SK-MEL-2 melanoma = system: SK-MEL-2 melanoma
HCC-2998 colon = system: HCC-2998 colon
TK-10 renal = system: TK-10 renal
HT29 colon = system: HT29 colon
HOP-62 NSCLC = system: HOP-62 NSCLC
K-562 leukemia = system: K-562 leukemia
A549 NSCLC = system: A549 NSCLC
MDA-MB-435 melanoma = system: MDA-MB-435 melanoma
SF-268 CNS = system: SF-268 CNS
MOLT-4 leukemia = system: MOLT-4 leukemia
ACHN renal = system: ACHN renal
SK-MEL-5 melanoma = system: SK-MEL-5 melanoma
OVCAR-8 ovarian = system: OVCAR-8 ovarian
BT-549 breast = system: BT-549 breast
CAKI-1 renal = system: CAKI-1 renal
HS 578T breast = system: HS 578T breast
NCI/ADR-RES ovarian = system: NCI/ADR-RES ovarian
MALME-3M melanoma = system: MALME-3M melanoma
RPMI-8226 leukemia = system: RPMI-8226 leukemia
OVCAR-5 ovarian = system: OVCAR-5 ovarian
MDA-MB-231 breast = system: MDA-MB-231 breast
SF-295 CNS = system: SF-295 CNS
SW-620 colon = system: SW-620 colon
SF-539 CNS = system: SF-539 CNS
HOP-92 NSCLC = system: HOP-92 NSCLC
NCI-H460 NSCLC = system: NCI-H460 NSCLC
M14 melanoma = system: M14 melanoma
COLO 205 colon = system: COLO 205 colon
PC-3 prostate = system: PC-3 prostate
SNB-75 CNS = system: SNB-75 CNS
NCI-H23 lung = system: NCI-H23 lung
SN12C renal = system: SN12C renal
NCI-H522 lung = system: NCI-H522 lung

C/C=C1\NC(=O)[C@H]2CSSCCC=C[C@H](CC(=O)N[C@H](C(C)C)C(=O)N2)OC(=O)[C@H](C(C)C)NC1=O
active: GI50 (LOX IMVI melanoma) < 0.01 µM | GI50 ([…]-0 renal) < 0.01 µM | GI50 (HCT-116 colon) < 0.01 µM | GI50 (SK-OV-3 ovarian) < 0.01 µM | GI50 (RXF 393 renal) < 0.01 µM | GI50 (UO-31 renal) 0.0436 µM | GI50 (T-47D breast) < 0.01 µM | GI50 (SNB-19 CNS) < 0.01 µM | GI50 (UACC-257 melanoma) < 0.01 µM | GI50 (EKVX NSCLC) < 0.01 µM | GI50 (HL-60(TB) leukemia) < 0.01 µM | GI50 (OVCAR-4 ovarian) < 0.01 µM | GI50 (MDA-MB-468 breast) < 0.01 µM | GI50 (DU-145 prostate) < 0.01 µM | GI50 (SK-MEL-2 melanoma) < 0.01 µM | GI50 (HCC-2998 colon) < 0.01 µM | GI50 (TK-10 renal) < 0.01 µM | GI50 (HT29 colon) < 0.01 µM | GI50 (HOP-62 NSCLC) < 0.01 µM | GI50 (K-562 leukemia) < 0.01 µM | GI50 (A549 NSCLC) < 0.01 µM | GI50 (MDA-MB-435 melanoma) < 0.01 µM | GI50 (SF-268 CNS) < 0.01 µM | GI50 (MOLT-4 leukemia) < 0.01 µM | GI50 (ACHN renal) < 0.0119 µM | GI50 (SK-MEL-5 melanoma) < 0.01 µM | GI50 (OVCAR-8 ovarian) < 0.01 µM | GI50 (BT-549 breast) < 0.01 µM | GI50 (CAKI-1 renal) < 0.01 µM | GI50 (HS 578T breast) < 0.01 µM | GI50 (MALME-3M melanoma) < 0.01 µM | GI50 (RPMI-8226 leukemia) < 0.01 µM | GI50 (OVCAR-5 ovarian) < 0.01 µM | GI50 (MDA-MB-231 breast) < 0.01 µM | GI50 (SF-295 CNS) < 0.01 µM | GI50 (SW-620 colon) < 0.01 µM | GI50 (SF-539 CNS) < 0.01 µM | GI50 (HOP-92 NSCLC) < 0.01 µM | GI50 (NCI-H460 NSCLC) < 0.01 µM | GI50 (M14 melanoma) < 0.01 µM | GI50 (COLO 205 colon) < 0.01 µM | GI50 (PC-3 prostate) < 0.01 µM | GI50 (SNB-75 CNS) < 0.01 µM | GI50 (NCI-H23 lung) < 0.01 µM | GI50 (SN12C renal) < 0.01 µM | GI50 (NCI-H522 lung) < 0.01 µM
13.8 µM: TGI (NCI/ADR-RES ovarian)
< 0.0149 µM: TGI (786-0 renal)
< 0.0181 µM: TGI (TK-10 renal)
0.0233 µM: TGI (ACHN renal)
inactive: GI50 (NCI/ADR-RES ovarian) 2.85 µM
0.0308 µM: TGI (EKVX NSCLC)
0.0101 µM: TGI (NCI-H460 NSCLC)
< 0.01 µM: TGI (LOX IMVI melanoma) | TGI (HCT-116 colon) | TGI (SK-OV-3 ovarian) | TGI (RXF 393 renal) | TGI (T-47D breast) | TGI (SNB-19 CNS) | TGI (UACC-257 melanoma) | TGI (HL-60(TB) leukemia) | TGI (OVCAR-4 ovarian) | TGI (MDA-MB-468 breast) | TGI (DU-145 prostate) | TGI (SK-MEL-2 melanoma) | TGI (HCC-2998 colon) | TGI (HT29 colon) | TGI (HOP-62 NSCLC) | TGI (K-562 leukemia) | TGI (A549 NSCLC) | TGI (MDA-MB-435 melanoma) | TGI (SF-268 CNS) | TGI (MOLT-4 leukemia) | TGI (SK-MEL-5 melanoma) | TGI (OVCAR-8 ovarian) | TGI (BT-549 breast) | TGI (CAKI-1 renal) | TGI (HS 578T breast) | TGI (MALME-3M melanoma) | TGI (RPMI-8226 leukemia) | TGI (OVCAR-5 ovarian) | TGI (MDA-MB-231 breast) | TGI (SF-295 CNS) | TGI (SW-620 colon) | TGI (SF-539 CNS) | TGI (HOP-92 NSCLC) | TGI (M14 melanoma) | TGI (COLO 205 colon) | TGI (PC-3 prostate) | TGI (SNB-75 CNS) | TGI (NCI-H23 lung) | TGI (SN12C renal) | TGI (NCI-H522 lung)
0.159 µM: TGI (UO-31 renal)
